Activity calls are given as the source filed them. No cut-off for these calls is given here.
Tests used:
MDA-MB-231 [1] = assay: Inhibition of cell migration human MDA-MB-231 cells assessed as migration distance at 25 uM incubated for 48 hrs by wound healing assay (reference value: 642.72 micrometer); format: functional
[2] = Antiproliferative activity against human HEK293 cells assessed as reduction in cell viability measured for 48 hrs by MTT assay; format: toxicity, cell-based
MDA-MB-231 [3] = assay: Induction of apoptosis in human MDA-MB-231 cells assessed as apoptotic cells at 40 uM incubated for 12 hrs by Annexin V-FITC/PI staining based analysis; format: functional
HUVEC [4] = assay: Antiangiogenesis activity in HUVEC cells at 62.5 nM incubated for 12 hrs by microscopic analysis; format: functional, cell-based; conditions: Homo sapiens
MDA-MB-231 [5] = assay: Antitumor activity against human MDA-MB-231 cells xenografted in nude mouse assessed as decrease in Ki67 expression at 10 mg/kg, ip measured for 3 days by immunohistochemistry analysis; format: functional, organism-based; conditions: time 3.0 day
PC-3 = assay: Antiproliferative activity against human PC-3 cells assessed as reduction in cell viability measured for 48 hrs by MTT assay; format: functional, cell-based; conditions: PC-3, 48 h
[6] = Inhibition of PI3K/AKT/mTOR signaling pathway in human MDA-MB-231 cells assessed as decrease in mTOR phosphorylation at 1 to 4 uM incubated for 6 hrs by Western blot analysis; format: cell-based; conditions: dose 1-4 µM
MDA-MB-231 [7] = assay: Antitumor activity against human MDA-MB-231 cells xenografted in nude mouse assessed as inhibition of lung metastasis in tumor at 10 mg/kg, ip measured for 3 days; format: functional, organism-based; conditions: time 3.0 day
MDA-MB-231 [8] = assay: Antiproliferative activity against human MDA-MB-231 cells assessed as reduction in cell viability measured for 48 hrs by MTT assay; format: functional, cell-based; conditions: MDA-MB-231, 48 h
[9] = target: Dual specificity protein kinase CLK4 (Homo sapiens, UniProt Q9HAZ1); assay: Inhibition of CLK4 (unknown origin)
MDA-MB-231 [10] = assay: Induction of apoptosis in human MDA-MB-231 cells assessed as apoptotic cells at 4 uM incubated for 48 hrs by Annexin V-FITC/PI staining based analysis; format: functional
[11] = target: Casein kinase I isoform epsilon (Homo sapiens, UniProt P49674); assay: Inhibition of CK1epsilon (unknown origin)
[12] = Inhibition of PI3K/AKT/mTOR signaling pathway in human MDA-MB-231 cells assessed as increase in p38 phosphorylation at 2 to 4 uM incubated for 6 hrs by Western blot analysis; format: cell-based; conditions: dose 2-4 µM
[13] = Inhibition of PI3K/AKT/mTOR signaling pathway in human MDA-MB-231 cells assessed as increase in p38 expression at 2 to 4 uM incubated for 6 hrs by Western blot analysis; format: cell-based; conditions: dose 2-4 µM
[14] = Antiproliferative activity against human HUVEC cells assessed as reduction in cell viability measured for 48 hrs by MTT assay; format: toxicity, cell-based
MDA-MB-231 [15] = assay: Induction of apoptosis in human MDA-MB-231 cells assessed as apoptotic cells at 40 uM incubated for 24 hrs by Annexin V-FITC/PI staining based analysis; format: functional
MDA-MB-231 [16] = assay: Induction of ROS generation in human MDA-MB-231 cells assessed as increase in intracellular ROS level at 40 uM incubated for 48 hrs by DCFH-DA staining based fluorescence microscopic analysis (Rvb=79.6%); format: functional
[17] = Inhibition of PI3K/AKT/mTOR signaling pathway in human MDA-MB-231 cells assessed as decrease in AKT phosphorylation at 1 to 4 uM incubated for 6 hrs by Western blot analysis; format: cell-based; conditions: dose 1-4 µM
[18] = Toxicity in nude mouse xenografted with human MDA-MB-231 cells assessed as change in body weight at 10 to 20 mg/kg, ip measured for 3 days; format: organism-based; conditions: in vivo, 72 h, dose 10-20 mg/kg, time 3 day
MDA-MB-231 [19] = assay: Induction of apoptosis in human MDA-MB-231 cells assessed as increase in number of cell debris at 4 uM incubated for 48 hrs; format: functional, cell-based
MDA-MB-231 [20] = assay: Antitumor activity against human MDA-MB-231 cells xenografted in nude mouse assessed as decrease in CD31 expression at 10 mg/kg, ip measured for 3 days by immunohistochemistry analysis; format: functional, organism-based; conditions: time 3.0 day
[21] = target: Dual specificity protein kinase CLK2 (Homo sapiens, UniProt P49760); assay: Inhibition of CLK2 (unknown origin)
A549 = assay: Antiproliferative activity against human A549 cells assessed as reduction in cell viability measured for 48 hrs by MTT assay; format: functional, cell-based; conditions: A549, 48 h
HepG2 = assay: Antiproliferative activity against human HepG2 cells assessed as reduction in cell viability measured for 48 hrs by MTT assay; format: functional, cell-based; conditions: HepG2, 48 h
K562 = assay: Antiproliferative activity against human K562 cells assessed as reduction in cell viability measured for 48 hrs by MTT assay; format: functional, cell-based; conditions: K562, 48 h
[22] = Inhibition of PI3K/AKT/mTOR signaling pathway in human MDA-MB-231 cells assessed as decrease in mTOR expression at 1 to 4 uM incubated for 6 hrs by Western blot analysis; format: cell-based; conditions: dose 1-4 µM
MDA-MB-231 [23] = assay: Induction of apoptosis in human MDA-MB-231 cells assessed as apoptotic cells at 40 uM incubated for 48 hrs by Annexin V-FITC/PI staining based analysis; format: functional
Cell membrane = assay: Induction of mitochondrial membrane potential loss in human MDA-MB-231 cells assessed as increase in fluorescence intensity at 40 uM incubated for 48 hrs by TMRM dye based flow cytometry analysis (reference value: 97.5%)
MDA-MB-231 [24] = assay: Induction of apoptosis in human MDA-MB-231 cells assessed as apoptotic cells at 4 uM incubated for 12 hrs by Annexin V-FITC/PI staining based analysis; format: functional
MDA-MB-231 [25] = assay: Antiproliferative activity against human MDA-MB-231 cells assessed as reduction in viability at 4 uM incubated for 7.5 hrs by MTT assay; format: functional
MGC-803 = assay: Antiproliferative activity against human MGC-803 cells assessed as reduction in cell viability measured for 48 hrs by MTT assay; format: functional, cell-based; conditions: MGC-803, 48 h
MDA-MB-231 [26] = assay: Antitumor activity against human MDA-MB-231 cells xenografted in nude mouse assessed as inhibition of proliferation of tumor cells at 10 mg/kg, ip measured for 3 days by H and E staining based analysis; format: functional, organism-based; conditions: time 3.0 day
MDA-MB-231 [27] = assay: Antitumor activity against human MDA-MB-231 cells xenografted in nude mouse assessed as reduction in tumor growth at 10 to 20 mg/kg, ip measured for 3 days; format: functional, organism-based; conditions: dose 10-20 mg/kg, time 3.0 day
MDA-MB-231 [28] = assay: Induction of apoptosis in human MDA-MB-231 cells assessed as apoptotic cells at 4 uM incubated for 24 hrs by Annexin V-FITC/PI staining based analysis; format: functional
MDA-MB-231 [29] = assay: Antiproliferative activity against human MDA-MB-231 cells assessed as reduction in viability at 10 uM incubated for 7.5 hrs by MTT assay; format: functional
[30] = Inhibition of PI3K/AKT/mTOR signaling pathway in human MDA-MB-231 cells assessed as decrease in EGFR expression at 1 to 4 uM incubated for 6 hrs by Western blot analysis; format: cell-based; conditions: dose 1-4 µM
HUVEC [31] = assay: Antiangiogenesis activity in HUVEC cells at 0.03 to 0.3 uM incubated for 12 hrs by microscopic analysis; format: functional, cell-based; conditions: Homo sapiens, dose 0.03-0.3 µM

Casein kinase I isoform epsilon, sequence (P49674 whole entry, canonical isoform): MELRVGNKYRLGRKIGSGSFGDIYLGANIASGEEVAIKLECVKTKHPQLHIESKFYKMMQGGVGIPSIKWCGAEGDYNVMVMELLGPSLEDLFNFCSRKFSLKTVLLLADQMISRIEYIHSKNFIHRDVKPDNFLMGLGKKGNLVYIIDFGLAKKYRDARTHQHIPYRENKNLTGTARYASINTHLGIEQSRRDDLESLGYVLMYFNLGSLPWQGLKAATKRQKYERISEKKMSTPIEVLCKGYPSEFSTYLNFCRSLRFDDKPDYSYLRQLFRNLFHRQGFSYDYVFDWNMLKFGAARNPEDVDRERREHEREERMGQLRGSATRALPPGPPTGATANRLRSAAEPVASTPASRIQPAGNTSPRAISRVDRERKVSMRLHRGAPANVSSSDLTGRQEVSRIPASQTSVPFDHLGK
Dual specificity protein kinase CLK4, sequence (Q9HAZ1 whole entry): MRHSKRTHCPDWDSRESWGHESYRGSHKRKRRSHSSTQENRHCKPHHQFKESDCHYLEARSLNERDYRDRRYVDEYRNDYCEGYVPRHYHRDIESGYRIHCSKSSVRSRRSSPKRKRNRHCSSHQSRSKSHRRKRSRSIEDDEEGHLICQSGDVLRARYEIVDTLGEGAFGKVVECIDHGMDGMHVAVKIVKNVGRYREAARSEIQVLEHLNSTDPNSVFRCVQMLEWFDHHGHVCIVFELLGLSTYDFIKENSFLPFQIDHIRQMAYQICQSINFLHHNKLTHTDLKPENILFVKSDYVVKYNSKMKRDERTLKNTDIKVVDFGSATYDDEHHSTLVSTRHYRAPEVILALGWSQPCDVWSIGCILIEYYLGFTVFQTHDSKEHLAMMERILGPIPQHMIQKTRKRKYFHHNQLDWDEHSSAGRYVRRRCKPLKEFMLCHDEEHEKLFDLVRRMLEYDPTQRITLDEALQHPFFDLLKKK
Dual specificity protein kinase CLK2, sequence (P49760 whole entry): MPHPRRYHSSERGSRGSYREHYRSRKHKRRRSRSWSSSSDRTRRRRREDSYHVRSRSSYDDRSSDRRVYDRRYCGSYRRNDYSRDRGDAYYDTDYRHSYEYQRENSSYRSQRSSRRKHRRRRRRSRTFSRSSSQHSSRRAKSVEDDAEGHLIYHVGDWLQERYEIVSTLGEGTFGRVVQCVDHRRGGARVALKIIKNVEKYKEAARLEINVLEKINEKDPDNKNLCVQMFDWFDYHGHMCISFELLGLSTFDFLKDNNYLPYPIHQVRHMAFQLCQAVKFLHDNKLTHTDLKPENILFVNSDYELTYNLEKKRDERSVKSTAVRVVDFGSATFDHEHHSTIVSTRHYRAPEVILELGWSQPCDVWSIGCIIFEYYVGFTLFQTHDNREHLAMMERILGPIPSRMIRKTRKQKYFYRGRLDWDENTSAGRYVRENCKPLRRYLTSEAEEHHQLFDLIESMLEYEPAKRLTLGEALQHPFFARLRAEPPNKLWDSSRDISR

- IC50 (PC-3): 2430 nM
- IC50 (MDA-MB-231 [8]): 3150 nM
- IC50 [9]: 685 nM
- IC50 [11]: 296 nM
- IC50 [21]: 194 nM
- IC50 (A549): 2120 nM
- IC50 (HepG2): 1680 nM
- IC50 (K562): 320 nM
- Activity (Cell membrane): 24.5%
- IC50 (MGC-803): 3890 nM
SMILES: OCCN1CCC(C2CCN(c3nc(NCc4ccc(F)c(Cl)c4)c4ncn(CC5CC5)c4n3)CC2)CC1
- Activity (MDA-MB-231 [1]): 23.48 um
- IC50 at 48 h [2]: 4320 nM
- Activity (MDA-MB-231 [3]): >95%
- Activity (HUVEC [4]): Active
- Activity (MDA-MB-231 [5]): Active
- inhibition [6]: Active
- Activity (MDA-MB-231 [7]): Active
- Activity (MDA-MB-231 [10]): 96.3%
- inhibition [12]: Active
- inhibition [13]: Active
- IC50 at 48 h [14]: 4260 nM
- Activity (MDA-MB-231 [15]): >95%
- Activity (MDA-MB-231 [16]): 80.7%
- inhibition [17]: Active
- Activity [18]: Non-Toxic
- Activity (MDA-MB-231 [19]): Active
- Activity (MDA-MB-231 [20]): Active
- inhibition [22]: Active
- Activity (MDA-MB-231 [23]): >95%
- Activity (MDA-MB-231 [24]): 83.5%
- Activity (MDA-MB-231 [25]): ~100%
- Activity (MDA-MB-231 [26]): Active
- Activity (MDA-MB-231 [27]): Active
- Activity (MDA-MB-231 [28]): 97.1%
- Activity (MDA-MB-231 [29]): ~100%
- inhibition [30]: Active
- Activity (HUVEC [31]): Active
